As usually defined, the IC50 is the concentration that gives 50% inhibition. The melting point is the temperature of the solid-liquid transition.

The structures appear in SMILES notation. Like-named read-outs stand apart in the source and are kept apart here.

The subject of series [1] is Trypanosoma cruzi, Tulahuen C4 strain, amastigotes stage. Briefly: In vitro activity against T. cruzi. In kind it is cell-based. As to the method:
(§1) The in vitro activities against the protozoan parasites T.b. rhodesiense, T. cruzi, L. donovani, and P. falciparum and cytotoxicity assessment against L6 cells were determined as reported elsewhere.

Series [2] deals with Trypanosoma brucei rhodesiense, STIB 900 strain, trypomastigotes stage. Nature of the series: In vitro activity against T. b. rhodesiense. Type of series: cell-based. As to the method: as §1
In series [3] the test system is Leishmania donovani, MHOM-ET-67/L82 strain, amastigote/axenic stage. Briefly: In vitro activity against L. donovani. In kind it is cell-based. As for the experimental part:
as §1

Series [4] concerns Plasmodium falciparum, K1 strain, IEF stage. Nature of the series: In vitro activity against P. falciparum K1. The settings on record: for SI Pf: Selectivity index for P. falciparum = IC50 L6/IC50 Pf. In kind it is cell-based. As to the method: as §1
Series [5] relates to L6 rat skeletal myoblast cell line. Briefly: Cytotoxicity against L6 cells. Type of series: cell-based. As to the method:
as §1

The mark [6] stands for this setting: Trypanosoma cruzi, TULAHUEN, Tulahuen C4, amastigotes, average of two independent assays, read-out: IC50 T. cruzi.
Where [7] appears, read: Trypanosoma brucei, STIB 900, trypomastigotes, average of two independent assays, read-out: IC50 T. b. rhod.
The mark [8] stands for this setting: Leishmania donovani, MHOM-ET-67/L82, axenic amastigotes, average of two independent assays, read-out: IC50 L. don.
Where [9] appears, read: Plasmodium falciparum, K1 dual drug resistant strain, IEF stage, average of two independent assays, read-out: IC50 P. falc. K1.
Where [10] appears, read: Rattus norvegicus, Myoblast, cytotoxicity, L6 rat skeletal myoblasts, average of two independent assays, read-out: IC50 L6.

In the case of `O=C(Cn1ccnc1[N+](=O)[O-])NCc1ccccc1` [Benznidazole, reference compound], the 50% inhibitory concentration (IC50) was found to be 0.352 µg/mL in series [1] (Trypanosoma cruzi, TULAHUEN, Myoblast, in Rattus norvegicus, read-out: IC50 T. cruzi, Tulahuen C2C4, amastigote forms in L6 rat myoblasts, positive control); 1.8 µM in series [1] (setting [6]); 1.4 µM in series [1] (Tulahuen C4, amastigotes, average of two independent assays, read-out: IC50 T. cruzi).

`O=C(NCCc1ccccc1)c1ccc2c(n1)C(=O)C1=C(C2=O)S(=O)(=O)CCN1` [Compound 7e, N-Phenethyl-5,10-dioxo-3,4,5,10-tetrahydro-2H-[1,4]thiazino[2,3-g]quinoline-7-carboxamide 1,1-Dioxide]: the melting point was 240 °C (dec.). Also, the IC50 in series [2] (setting [7]) stood at 2.4 µM. Besides, the IC50 in series [1] (setting [6]) came to 140 µM. The IC50 in series [3] (setting [8]) was 160 µM. The IC50 in series [4] (setting [9]) was found to be 1.5 µM. Also, the “SI Pf” value in series [4] amounted to 72. Besides, in series [5] (setting [10]), the IC50 is 110 µM.

As for `O=C(O)c1ccc2c(n1)C(=O)C1=C(C2=O)S(=O)(=O)CCN1` [Compound 2, ascidiathiazone A], the IC50 is 3.1 µM in series [2] (setting [7]); above 290 µM in series [1] (setting [6]); 270 µM in series [3] (setting [8]); 3.3 µM in series [4] (setting [9]); 167 µM in series [5] (setting [10]); 170 µM in series [5] (cytotoxicity, L6 rat skeletal myoblasts, average of two independent assays, read-out: IC50 L6). In addition, in series [4], the “SI Pf” value is recorded as 50.

`CCCCCCCCNC(=O)c1ccc2c(n1)C(=O)C1=C(C2=O)S(=O)(=O)C=CN1` [Compound 8c, N-n-Octyl-5,10-dioxo-5,10-dihydro-4H-[1,4]thiazino[2,3-g]quinoline-7-carboxamide 1,1-Dioxide]: the melting point was 280 °C (dec.). In addition, the IC50 in series [2] (setting [7]) turned out to be 2.4 µM. Also, the IC50 in series [1] (setting [6]) came out at 42 µM. Further, the 50% inhibitory concentration (IC50) in series [3] (setting [8]) was 53 µM. Also, the IC50 in series [4] (setting [9]) amounted to 0.98 µM. In addition, the “SI Pf” value in series [4] was determined as 6. Also, the IC50 in series [5] (setting [10]) turned out to be 6.5 µM.

Turning to `O=C(NCCCc1ccccc1)c1ccc2c(n1)C(=O)C1=C(C2=O)S(=O)(=O)C=CN1` [Compound 8f, N-(3-Phenylpropyl)-5,10-dioxo-5,10-dihydro-4H-[1,4]thiazino[2,3-g]quinoline-7-carboxamide 1,1-Dioxide], the melting point was 230 °C (dec.). Also, the IC50 in series [2] (setting [7]) was 5.9 µM. Moreover, in series [1] (setting [6]), the concentration for half-maximal inhibition (IC50) amounted to 59 µM. In addition, the half-maximal inhibitory concentration (IC50) in series [3] (setting [8]) is above 240 µM. In addition, in series [4] (setting [9]), the IC50 turned out to be 1.2 µM. The “SI Pf” value in series [4] amounted to 5. Besides, the IC50 in series [5] (setting [10]) was determined as 6.5 µM.

Regarding `CCCCNC(=O)c1ccc2c(n1)C(=O)C1=C(C2=O)S(=O)(=O)CCN1` [Compound 7a, N-n-Butyl-5,10-dioxo-3,4,5,10-tetrahydro-2H-[1,4]thiazino[2,3-g]quinoline-7-carboxamide 1,1-Dioxide], the melting point is 200 °C (dec.). For the same molecule, the IC50 in series [2] (setting [7]) amounted to 5.5 µM. In addition, in series [1] (setting [6]), the IC50 turned out to be 63 µM. The IC50 in series [3] (setting [8]) is above 280 µM. Besides, the half-maximal inhibitory concentration (IC50) in series [4] (setting [9]) worked out at 0.94 µM. For the same molecule, in series [4], the “SI Pf” value is 26. Further, the IC50 in series [5] (setting [10]) stood at 24 µM.

On to `CC(C)=CCC/C(C)=C/CNC(=O)c1ccc2c(n1)C(=O)C1=C(C2=O)S(=O)(=O)CCN1` [Compound 7g, (E)-N-(3,7-Dimethylocta-2,6-dien-1-yl)-5,10-dioxo-3,4,5,10-tetrahydro-2H-[1,4]thiazino [2,3-g]quinoline-7-carboxamide 1,1-Dioxide], for which the melting point was 200 °C (dec.). For the same molecule, the IC50 in series [2] (setting [7]) came out at 3.4 µM. In series [1] (setting [6]), the half-inhibitory concentration (IC50) was found to be 41 µM. Besides, the IC50 in series [3] (setting [8]) turned out to be 83 µM. The IC50 in series [4] (setting [9]) was 1.6 µM. The “SI Pf” value in series [4] stood at 15. Also, the IC50 in series [5] (setting [10]) came to 24 µM.

On to `CCN(CC)CCCC(C)Nc1ccnc2cc(Cl)ccc12` (centres unmarked) [Chloroquine, reference compound], for which the IC50 in series [4] (Plasmodium falciparum, K1, read-out: IC50 P. falc. K1, K1 dual drug resistant strain, IEF stage, average of two independent assays) came to 0.2 µM; in series [4] (Plasmodium falciparum, K1, read-out: IC50 P. falciparum, K1 (chloroquine and pyrimethamine resistant), erythrocytic stages, positive control), 0.065 µg/mL; in series [4] (read-out: IC50 P. falc. K1, K1 dual drug resistant strain, IEF stage, average of two independent assays) it was 0.28 µM.

As for `O=C(O)c1cc2c(s1)C(=O)C1=C(NCCS1(=O)=O)C2=O` [Compound 11b, 5,9-Dioxo-2,3,5,9-tetrahydro-1H-thieno[3′,2′:4,5]benzo[1,2-b][1,4] thiazine-7-carboxylic Acid 4,4-Dioxide], the melting point is 200 °C (dec.).

With `COC(=O)CNC(=O)c1ccc2c(n1)C(=O)C1=C(C2=O)S(=O)(=O)CCN1` [Compound 7j, Methyl 2-(1,1-Dioxido-5,10-dioxo-3,4,5,10-tetrahydro-2H-[1,4]thiazino[2,3-g]quinoline-7-carboxamido)acetate], the melting point is 200 °C (dec.). The IC50 in series [2] (setting [7]) is 120 µM. Further, the IC50 in series [1] (setting [6]) was determined as 250 µM. In addition, the IC50 in series [3] (setting [8]) was above 260 µM. For the same molecule, the 50% inhibitory concentration (IC50) in series [4] (setting [9]) worked out at 3.4 µM. Also, in series [4], the “SI Pf” value worked out at 31. Besides, the half-inhibitory concentration (IC50) in series [5] (setting [10]) came to 110 µM.

As for `O=C(O)c1ccc2c(n1)C(=O)C1=C(C2=O)S(=O)(=O)C=CN1` [Compound 4], the IC50 in series [2] (setting [7]) is 4 µM; in series [1] (setting [6]), above 290 µM; in series [3] (setting [8]), 190 µM; in series [4] (setting [9]) it was 0.6 µM; in series [5] (setting [10]), 180 µM. The “SI Pf” value in series [4] is on record as 300.

`C#CCNC(=O)c1ccc2c(n1)C(=O)C1=C(C2=O)S(=O)(=O)CCN1` [Compound 7h, N-(Prop-2-yn-1-yl)-5,10-dioxo-3,4,5,10-tetrahydro-2H-[1,4]thiazino[2,3-g]quinoline-7-carboxamide 1,1-Dioxide]: the melting point is 280 °C (dec.). The IC50 in series [2] (setting [7]) was above 150 µM. Also, the IC50 in series [1] (setting [6]) was determined as 53 µM. In addition, the IC50 in series [3] (setting [8]) came out at 170 µM. Also, in series [4] (setting [9]), the IC50 came to 2.4 µM. In addition, the “SI Pf” value in series [4] came to 17. Further, the IC50 in series [5] (setting [10]) was 41 µM.

Take `Nc1nc(N)nc(Nc2ccc([As]3SCC(CO)S3)cc2)n1` (centres unmarked) [Melarsoprol, reference compound]: the 50% inhibitory concentration (IC50) in series [2] (Trypanosoma brucei, read-out: IC50 T. b. rhod., STIB 900, trypomastigotes, average of two independent assays) came to 0.005 µM; in series [2] (Trypanosoma brucei, read-out: IC50 T.b. rhodesiense, STIB900, trypomastigote forms, positive control) it was 0.004 µg/mL; in series [2] (read-out: IC50 T. b. rhod., STIB 900, trypomastigotes, average of two independent assays), 0.01 µM.

In the case of `COC(=O)c1cc2c(s1)C(=O)C1=C(NCCS1(=O)=O)C2=O` [Compound 10b, Methyl 5,9-Dioxo-2,3,5,9-tetrahydro-1H-thieno[3′,2′:4,5]benzo [1,2-b][1,4]thiazine-7-carboxylate 4,4-Dioxide], the melting point is 280 °C (dec.).

Turning to `CCCCCCCCCCCCCCCCOP(=O)([O-])OCC[N+](C)(C)C` [Miltefosine, reference compound], the IC50 in series [3] (setting [8]) stood at 0.5 µM; in series [3] (Leishmania donovani, MHOM/ET/67/L82, axenic amastigote forms, positive control, read-out: IC50 L. donovani), 0.213 µg/mL; in series [3] (MHOM-ET-67/L82, axenic amastigotes, average of two independent assays, read-out: IC50 L. don.), 0.53 µM.

For the molecule `COC(=O)c1ccc2c(n1)C(=O)C1=C(C2=O)S(=O)(=O)CCN1` [Compound 3], the IC50 in series [2] (setting [7]) came to 6.6 µM; in series [1] (setting [6]), 180 µM; in series [3] (setting [8]), 31 µM; in series [4] (setting [9]), 2.5 µM; in series [5] (setting [10]), 140 µM. In addition, the “SI Pf” value in series [4] is given as 56.

Consider `COCCNC(=O)c1ccc2c(n1)C(=O)C1=C(C2=O)S(=O)(=O)CCN1` [Compound 7i, N-(2-Methoxyethyl)-5,10-dioxo-3,4,5,10-tetrahydro-2H-[1,4]thiazino[2,3-g] quinoline-7-carboxamide 1,1-Dioxide], for which the melting point was 200 °C (dec.).

`O=C(O)CNC(=O)c1ccc2c(n1)C(=O)C1=C(C2=O)S(=O)(=O)C=CN1` [Compound 8k, 2-(1,1-Dioxido-5,10-dioxo-5,10-dihydro-4H-[1,4]thiazino[2,3-g]quinoline-7-carboxamido)acetic Acid]: the IC50 in series [2] (setting [7]) was 42 µM; in series [1] (setting [6]) it was 160 µM; in series [3] (setting [8]), above 280 µM; in series [4] (setting [9]), 1.2 µM; in series [5] (setting [10]), 110 µM. Besides, the “SI Pf” value in series [4] is 93.

Turning to `COc1cc([C@@H]2c3cc4c(cc3[C@H](O)[C@H]3COC(=O)[C@H]23)OCO4)cc(OC)c1OC` [Podophyllotoxin, reference compound], the IC50 in series [5] (Rattus norvegicus, L6, read-out: IC50 L6 cells, rat skeletal myoblasts, positive control) stood at 0.004 µg/mL; in series [5] (Rattus norvegicus, Myoblast, read-out: IC50 L6, cytotoxicity, L6 rat skeletal myoblasts, average of two independent assays) it was 0.01 µM; in series [5] (read-out: IC50 L6, cytotoxicity, L6 rat skeletal myoblasts, average of two independent assays) it was 0.019 µM.

As to `COC(=O)CNC(=O)c1ccc2c(n1)C(=O)C1=C(C2=O)S(=O)(=O)C=CN1` [Compound 8j, Methyl 2-(1,1-dioxido-5,10-dioxo-5,10-dihydro-4H-[1,4]thiazino[2,3-g]quinoline-7-carboxamido)acetate], the IC50 in series [2] (setting [7]) was 35 µM; in series [1] (setting [6]), 160 µM; in series [3] (setting [8]), 220 µM; in series [4] (setting [9]), 1.8 µM; in series [5] (setting [10]), 100 µM. For the same molecule, the “SI Pf” value in series [4] is on record as 57.

The values are drawn from PMC3806465, “Discovery and Evaluation of Thiazinoquinones as Anti-Protozoal Agents” (Marine Drugs, 2013).
